In data set [1] the test system is passive cutaneous anaphylaxis (PCA) in rats. Put plainly: 48 hr homologous passive cutaneous anaphylaxis (PCA) in rats. It is filed as in vivo, Male Wistar rats. Particulars: Rattus norvegicus, po, read-out: the percent inhibition of PCA in rats. As to the method:
(§1) The results of 48 hr homologous passive cutaneous anaphylaxis (PCA) in rats with the monitoring of antiallergic activity and the results of potentiation of hexobarbital-induced anesthesia in mice with the monitoring of central nervous depressive activity are summarized in Table 1. The following compound was used as the reference compound. Reference compound : Ketotifen-Fumarate
Ascaris extract coupled with 2, 4-dinitrophenyl group (DNP-As) was prepared by the method of Koda et al. (Folia pharmacol. japon., 78, 319-334, 1981) and anti-DNP-As containing IgE antibody serum was prepared by the method of Tada and Okumura (J. Immunol., 106, 1019-1025, 1971). The PCA titer of the antiserum was estimated to be 1:128 by 48 hr PCA in rats.
Male Wistar rats weighing 160 to 200 g were sensitized passively by intradermal injection, in the back, of 0.05 ml of anti-DNP-As serum diluted 21-fold with saline. After 48 hr, the animals (18-20 hr fasted) were given iv. 0.5 ml of 1% Evans blue solution containing 1 mg of DNP-As. After an additional 30 min, the animals were killed by stunning and the skins were removed. The intensity of the response was evaluated by assaying the amount of dye leaked according to the method of Katayama et al. (Microbiol. Immunol., 22, 89-101, 1978). The percent inhibition of PCA was calculated using the following formula: [formula]
Test compounds were given orally in a dose of 1 mg/kg 1 hr prior to challenge with antigen. As a control, 5 ml/kg of vehicle (0.5 % CMC) alone were given in a similar manner.

For data set [2], the system named is hexobarbital-induced anesthesia in mice. Also on record: species or system male ddY mice. The following applies: mouse, in vivo.
Text: as §1
The loss of righting reflex induced by hexobarbital was used as an index of anesthesia. Groups of eight male ddY mice (20-24 hr fasted) weighing 19 to 27 g were treated orally with the test compounds (30 mg/kg) or vehicle. Thirty min later, 80 mg/kg of hexobarbital sodium were injected i.p. to the animals and the duration of loss of righting reflex was observed.

Where [3] appears, read: 1 mg/kg, p.o., 1 hr prior to challenge with antigen, amount of dye leaked.

Where a name gives a salt, the structure may show the parent alone. Read-outs that look alike come from different tables or passages of the source.

Regarding `Cl.O=C(O)CCN1CCC(=C2c3ccccc3CC(=O)c3sccc32)CC1` [Example 5, 4-(4,9-Dihydro-10-oxo-10H-benzo[4,5]cyclohepta[1,2-b]thiophen-4-ylidene)-1-piperidinepropionic Acid Hydrochloride], the inhibition in vivo at 1 mg/kg in data set [1] (setting [3]) was determined as 75%. Besides, the “the percent increase of hexobarbital-induced anesthesia in mice” value (from here on “the percent increase”) in data set [2] was determined as 24%.

Take `Cl.O=C(O)CCCN1CCC(=C2c3ccccc3CC(=O)c3sccc32)CC1` [Example 6, 4-(4,9-Dihydro-10-oxo-10H-benzo[4,5]cyclohepta[1,2-b]thiophen-4-ylidene)-1-piperidinebutyric Acid Hydrochloride]: the inhibition in vivo at 1 mg/kg in data set [1] (setting [3]) is 77%. In addition, in data set [2], the “the percent increase” value is on record as 26%.

On to `Cl.O=C(O)CCCCN1CCC(=C2c3ccccc3CC(=O)c3sccc32)CC1` [Example 8, 4-(4,9-Dihydro-10-oxo-10H-benzo[4,5]cyclohepta[1,2-b]thiophen-4-ylidene)-1-piperidinevaleric Acid Hydrochloride], for which the inhibition in vivo at 1 mg/kg in data set [1] (setting [3]) came out at 71%. Further, the “the percent increase” value in data set [2] worked out at 27%.

As to `O=C(O)CCN1CCC(=C2c3ccccc3CSc3ccccc32)CC1` [Example 10, 4-(Dibenzo[b,e]thiepin-11(6H)-ylidene)-1-piperidinepropionic Acid Hydrochloride], in data set [1] (setting [3]), the inhibition in vivo at 1 mg/kg is 69%. Moreover, the “the percent increase” value in data set [2] came to 19%.

Take `O=C(O)CCCN1CCC(=C2c3ccccc3CSc3ccccc32)CC1` [Example 13, 4-(Dibenzo[b,e]thiepin-11(6H)-ylidene)-1-piperidinebutyric Acid Hydrochloride]: the inhibition in vivo at 1 mg/kg in data set [1] (setting [3]) was 58%. Further, the “the percent increase” value in data set [2] worked out at 30%.

Take `Cl.O=C(O)CCCCN1CCC(=C2c3ccccc3CSc3ccccc32)CC1` [Example 14, 4-(Dibenzo[b,e]thiepin-11(6H)-ylidene)-1-piperidinevaleric Acid Hydrochloride]: the inhibition in vivo at 1 mg/kg in data set [1] (setting [3]) amounted to 63%. In addition, in data set [2], the “the percent increase” value was 19%.

Regarding `Cl.O=C(O)CCCCCN1CCC(=C2c3ccccc3CSc3ccccc32)CC1` [Example 15, 4-(Dibenzo[b,e]thiepin-11(6H)-ylidene)-1-piperidinecaproic Acid Hydrochloride], the inhibition in vivo at 1 mg/kg in data set [1] (setting [3]) was 57%. The “the percent increase” value in data set [2] is 33%.

For `O=C(O)CCN1CCC(=C2c3ccccc3Sc3ccccc32)CC1` [Example 18, 4-(9H-Thioxanthen-9-ylidene)-1-piperidinepropionic Acid], the inhibition in vivo at 1 mg/kg in data set [1] (setting [3]) stood at 96%. In addition, in data set [2], the “the percent increase” value is listed as 49%.

`CN1CCC(=C2c3ccccc3CC(=O)c3sccc32)CC1` [Reference compound, 4,9-dihydro-4-(1-methyl-4-piperidinylidene)-10H-benzo[4,5]cyclohepta[1,2-b]thiophen-10-one, reference compound]: the inhibition in vivo at 1 mg/kg in data set [1] worked out at 56%. Further, the “the percent increase” value in data set [2] is recorded as 90%.
